Source: patent US7557085B2, “Metabolic-based methods for modulating gene expression” (Wisconsin Alumni Research Foundation, priority 2005, dated 2009)

Key:
[1] = type: in vivo; details: rats
Procedure: (§1) Dosage amount and interval of administration of compounds of the present invention can be adjusted individually to reduce seizure frequency, duration or intensity. For example, doses of 250 mg/kg 2-DG or less to higher as tolerated can be used to reduce seizure frequency and minimize toxicity. Doses of as much as 2000 mg/kg 2-DG are well tolerated in rats. […] A practitioner skilled in the art can adjust dosage in the range up to 500-600 mg/kg 2-DG and the timing of administration to produce prolonged anticonvulsant and antiepileptic effects. Efficacious dosage amounts can be adjusted to about 14 mg/kg 2-DG in children and 40 mg/kg 2-DG in adults, using therapeutic efficacy measurements (e.g., reduction in frequency or severity of seizures) as a criterion for establishing effective dosage levels.

CHRM4 [2] = assay: ChIP in JTC-19 cells grown with 2-DG or glucose, CHRM4; type: cell-based, rat
Text: To determine whether 2-DG mediated suppression of BDNF levels was associated with a decreased level of histone H3 Lysine^9 acetylation, hippocampii from 2-DG treated or control rats were crosslinked with 1% formaldehyde and subjected to chromatin immunoprecipitation assays (ChIPs), performed as in Roopra et al.(2004, Mol Cell 14: 727-38) with an antibody specific to acetylated H3-K9. The graphs shown in FIGS. 10A through 10C show the results of experiments in which the amount (in ng) of DNA associated with nucleosomes comprising modified or unmodified H3 histone proteins was detected for an endogenous, NRSE/NRSF-regulated gene (CHRM4) in JTC-19 cells grown in the presence of 2-DG or glucose. […] However, the amount of CtBP recruited to CHRM4, the NRSF target gene, increased 5-fold in the presence of 2-DG.

[3] = system: NRSF binding site (NSRE) from the mouse homolog of the human snail promoter; assay: SV40 luciferase reporter with snail promoter NRSE in HEK 293 cells; type: cell-based; details: HEK 293 cells grown overnight in the presence of glucose
Text: FIG. 12 is a graph showing repression of expression of a reporter gene using an SV40 promoter with or without the NRSF binding site from the human snail promoter. HG=glucose; Pyr=pyruvate; 2-DG=2-deoxyglucose.
To investigate whether the effects of 2-DG on gene expression is evidenced in genes known to be involved in metastatic growth, the NRSF binding site (NSRE) from the mouse homolog of the human snail promoter (GenBank Accession No. NM_005985), comprising a 440 bp nucleotide sequence
identified as SEQ ID NO. 6 was introduced into the SV40 promoter in the plasmid vector pGL3 (available from Promega, Madison, Wis.) at the BglII and Acc65I restriction enzyme recognition sites). In pGL3. a luciferase reporter gene is under the transcriptional control of the SV40 promoter, and in the construct described herein transcription from the SV40 promoter is regulated by NRSE/NRSF. Reporter plasmids with and without the NSRE insert were transfected into HEK 293 cells (ATCC Accession No. CRL 1573 ATCC, Manassas, Va.) and the cells grown overnight in the presence of glucose with and without pyruvate, 2-DG or both pyruvate and 2DG. […]

CHRM4 [4] = assay: QRT-PCR of CHRM4 in CtBP1/CtBP2 mutant Mouse Embryonic Fibroblasts; type: cell-based; details: 1 mM 2-DG
Procedure: FIG. 7C is a graph of normalized CHRM4 expression in MEFs bearing an inactivating mutation in heterozygous (−/+) or homozygous (−/−) state for both CtBP1 and CtBP2, assayed in the presence of absence of 2-DG.
To test whether CtBP was required for NRSF repression of chromosomal genes, expression levels of NRSF target genes were assayed in Mouse Embryonic Fibroblasts (MEFs) heterozygous or homozygous for deletions of both CtBP1 and CtBP2 (as described in Hildebrand & Soriano, 2002, Mol Cell Biol 22: 5296-307). In these experiments, wild type MEFs or MEFs heterozygous (CtBP1^−/+2^−/+) or homozygous (CtBP1^−/−2^−/−) for both CtBP1 and CtBP2 mutants were analyzed for CHRM4, Myelin Basic Protein (MBP) and hypoxanthine phosphoribosyl transferase (HPRT, as a non-NRSF regulated control) expression by QRT-PCR as described in Example 2. […] The expression levels of both genes were further elevated in CtBP1^−/−/2^−/− cells, consistent with a dose-responsive co-repressor function for CtBP.

NRSF mediated repression = assay: gal4-NRSF luciferase reporter (G5-TATA-Luc) in JTC-19 cells; type: cell-based, rat; details: JTC-19 cells
[5] = system: seizures evoked by kindling; assay: kindling model of epilepsy, afterdischarge (AD) threshold; type: in vivo, Sprague Dawley rats; set-up: change of AD threshold / duration of anticonvulsant effects after stopping 2-DG: dose or concentration left out as unconfirmed
Procedure: FIG. 2 illustrates the effects on after-discharge threshold of 2-DG in a […] model of epilepsy.
2-deoxy-D-glucose (2-DG), a potent inhibitor of glycolysis, was administered to rats experiencing epileptic seizures evoked by kindling, which induces seizures and long-term alterations in pathways of the hippocampal formation resembling human temporal lobe epilepsy. The effects of 2-DG on seizures evoked by kindling were examined in Sprague Dawley rats that received 2-DG and were compared to a saline-injected control group. Both groups initially received twice daily kindling stimulation (1 sec trains of 1 ms bipolar constant current pulses at 60 Hz) delivered to the perforant path input to the hippocampus according to established procedures, until 3 afterdischarges (ADs) accompanied by behavioral seizures were evoked. […]
as §1

BDNF = assay: QRT-PCR of hippocampal tissue from kindled rats, BDNF; type: in vivo, rat
Text: Values plotted are BDNF or TrkB expression over Actin using rat hippocampal cDNA from an untreated rat for a standard curve. Specifically, mRNA was extracted from hippocampus tissue from rats treated with 2-DG or untreated control rats subjected to kindling stimulation to mimic epilepsy. […] The levels of actin mRNA were not affected by 2-DG treatment. Importantly, the differences in expression of BDNF or TrkB in the absence or presence of 2DG were present after 5 ADs in association with a large difference in AD threshold between 2DG-treated and control rats (FIG. 3 lanes 5 versus 6 and 7 versus 8).

SMILES: O=CC[C@@H](O)[C@H](O)[C@H](O)CO [2-DG, 2-deoxy-D-glucose]
- well tolerated dose [1]: ≤ 2000 mg/kg
- H3-Lys9 acetylation levels at the CHRM4 promoter (CHRM4 [2]; in the presence of 2-DG): reduced
- amount of mono- and di-methyl K9 (CHRM4 [2]; in the presence of 2-DG): increased
- amount of unmodified (de-acetylated) H3K9 (CHRM4 [2]; in the presence of 2-DG): increased
- increase of amount of CtBP recruited to CHRM4 (CHRM4 [2]; in the presence of 2-DG): 5 fold
- amount of NRSF, G9a and SIN3 at NRSF target genes (CHRM4 [2]; presence or absence of 2-DG): does not change
- reporter gene expression (ratio of SV40-driven to NRSE/SV40 luciferase expression) [3]: decreased
- CHRM4 expression (CHRM4 [4]; CtBP1-/+/2-/+ cells): repressed
- CHRM4 expression (CHRM4 [4]; CtBP1-/-/2-/- cells): not altered
- repression by NRSF of luciferase reporter (NRSF mediated repression; 2-DG added to pyruvate and glucose): augmented this effect
- repression of luciferase reporter gene expression by NRSF (fold repression gal4 DBD/gal4-NRSF) (NRSF mediated repression; 16 hrs): increased repression
- repression by NRSF of luciferase reporter (NRSF mediated repression; in the absence of glucose): unable to further augment repression
- repression by NRSF of luciferase reporter (NRSF mediated repression; in the presence of glucose): increased repression
- AD threshold reached with repeated stimulations ([5]; rats, 2-DG 200 mg/kg subcutaneously 30 minutes prior to each kindling stimulation, maximum intensity of the stimulation protocol): 1500 μramps
- change of AD threshold ([5]; subcutaneous prior to each kindling stimulation that evoked AD, saline control showed a decrease): gradual increase
- duration of anticonvulsant effects after stopping 2-DG ([5]; twice daily for 3 months, twice daily stimulation continued): approximately 8 weeks
- hippocampal BDNF expression compared to control animals (BDNF; QRT-PCR, expression over actin, FIG. 3 lanes 1 versus 2): significantly reduced
- difference in expression of BDNF in absence or presence of 2DG (BDNF; after 5 ADs): present
- BDNF expression, 2DG-treated versus control rats (BDNF; rats that experienced 3 Class V seizures): no difference in expression
